For assay [1], the target named is T1, N1-Src (Rattus norvegicus, UniProt Q9WUD9). Nature of the assay: inhibition of N1-Src phosphorylation of GST-Y by free soluble peptide. The conditions noted are these: free soluble peptide titrated with 5 nM N1-Src and GST-Y; phosphotyrosine immunoblot densitometry; n = 3. Type of assay: biochemical. The arrangement: His; made in house; host or cells: E. coli. The protocol: Previous studies have shown that soluble SH3 ligands can enhance Src family kinase activity in vitro[20][21]. […] This experiment raised the possibility that PDN1 could act as an N1-Src inhibitor in cells. […] We observed that COS7 cells transfected with N1-Src-FLAG underwent a striking change in morphology within 48 h (Fig. 3a). Similar to that previously observed in Xenopus epithelial cells, overexpression of the kinase induced the growth of neurite-like processes (Fig. 3b) and an approximate 35% reduction in area of the cell soma (Fig. 3c). […] Using cell morphology as a readout, we assessed the effect of CFP-PDN1 and PDN1(P5A) on N1-Src activity in cells. […] We also assessed the effect of PDN1 on N2-Src expressing cells because the first five amino acids of its SH3 insert are identical to that in N1-Src[3].
Figure 2 PDN1 inhibits N1-Src activity in vitro. GST-Y was incubated with 5 nM N1-Src and the indicated concentrations of either PDN1 or PDN1(P5A) and the extent of phosphorylation determined by densitometry of phosphotyrosine immunoreactivity. […]
Phosphorylation reactions were performed as previously described, prepared in kinase reaction buffer (100 mM Tris, 10 mM MgCl2, pH 7.5) and initiated by the addition of pre-warmed ATP (0.5 mM final concentration) and incubated at 30 °C for the indicated times. […] Due to the non-quantitative measurement of V, Vmax was not determined. […]

Assay [2] concerns the target T1, N1-Src. Kind of assay: in vitro kinase assay, N1-Src phosphorylation of GST-Y-PDN substrates. Type of assay: biochemical. More on the design: His; made in house; host or cells: E. coli. The conditions noted are these: PDN1 fused to an ideal Src substrate. The protocol:
Figure 1 Identification of a novel ligand consensus sequence for the N1-Src SH3 domain. (a) Schematic of the kinase assay used to validate the effect of potential SH3 domain ligands on the phosphorylation of an ideal tyrosine motif (Y in bold) located upstream of a 10 aa linker and 12 aa phage peptide. (b) GST-Y-PDN1–6 substrates at 0.3, 0.9, 2.8 or 8.3 μM were phosphorylated in vitro with 5 nM C- or N1-Src at 30 °C and the phosphorylation detected by anti-phosphotyrosine immunoblot. Immunoblots are representative of three independent experiments. (c) Alignment of the phage display peptides ranked by N1-Src selectivity derived from results in (b). Shaded residues represent the common consensus sequence. […] (e) GST-Y-PDN1 substrates with the indicated point mutations (see insert) at 8.3 μM were phosphorylated by 5 nM N1-Src and the extent of phosphorylation was measured by densitometry of phosphotyrosine immunoreactivity. […]
The PDN peptides were tested for specificity for the N1-Src SH3 domain using a kinase assay in which a GST fusion of an ideal Src substrate peptide (Y) and a putative SH3 ligand peptide can distinguish SH3 domain specificity (Fig. 1a). Based on our previous study, we chose a range of substrate concentrations at which an enhancement in phosphorylation by docking to canonical peptide ligands for the C-Src SH3 domain can be detected (8.3 μM and below)[12]. […]

Turning to “WHRMPAYTAKYP [PDN1, 12mer peptide derived from a phage display screen of the N1-Src SH3 domain]”, the “inhibition of GST-Y phosphorylation” value against N1-Src [1] is “inhibited GST-Y phosphorylation in a dose dependent manner”. For the same sequence, at N1-Src [2], the “enhancement of substrate phosphorylation by N1-Src” value is “enhanced the specific in vitro phosphorylation of an ideal substrate by N1-Src”.

Source of the values: publication PMC5318895, “Inhibition of N1-Src kinase by a specific SH3 peptide ligand reveals a role for N1-Src in neurite elongation by L1-CAM” (Scientific Reports, 2017).
